Results: patent US20090227533A1, “miR-34 Regulated Genes and Pathways as Targets for Therapeutic Intervention” (priority 2007, published 2009)

Tests used:
Type in all cases: cell-based, human
LNCaP cells = experiment: Alamar Blue proliferation assay, prostate cancer cells; details: 30 nM, normalized to negative control miRNA (100% proliferation)
Text: (§1) The inventors assessed the therapeutic effect of hsa-miR-34a for prostate cancer by using four individual human prostate cancer cell lines. To measure cellular proliferation of prostate cancer cells, the following prostate cancer cell lines were used: PPC-1, derived from a bone metastasis; Du145, derived from a brain metastasis; RWPE2, derived from prostate cells immortalized by human papillomavirus 18 and transformed by the K-RAS oncogene; and LNCaP, derived from a lymph node metastasis (Bello et al., 1997; Pretlow et al., 1993; Stone et al., 1978; Brothman et al., 1991; Horoszewicz et al., 1980). PPC-1 and Du145 cells lack expression of the prostate-specific antigen (PSA) and are independent of androgen receptor (AR) signaling. In contrast, RWPE2 and LNCaP cells test positive for PSA and AR. Cells were transfected with synthetic hsa-miR-34a (Pre-miR™-hsa-miR-34a, Ambion cat. no. AM17100) or negative control miRNA (NC; Pre-miR™ microRNA Precursor Molecule-Negative Control #2; Ambion cat. no. AM17111) in a 96-well format using a lipid-based transfection reagent. Lipid-based reverse transfections were carried out in triplicate according to a published protocol (Ovcharenko et al., 2005) and the following parameters: cells (6,000-7,000 per 96 well), 0.1-0.2 μl Lipofectamine™ 2000 (cat. no. 11668-019, Invitrogen Corp., Carlsbad, Calif., USA) in 20 μl OptiMEM (Invitrogen), 30 nM final concentration of miRNA in 100 μl. Proliferation was assessed 4-7 days post-transfection using Alamar Blue™ (Invitrogen) following the manufacturer's instructions. As a control for inhibition of cellular proliferation, siRNA against the motor protein kinesin 11, also known as Eg5, was used. Eg5 is essential for cellular survival of most eukaryotic cells and a lack thereof leads to reduced cell proliferation and cell death (Weil et al., 2002). siEg5 was used in lipid-based transfection following the same experimental parameters that apply to miRNA. Fluorescent light units (FLU) were measured after 3 hours, normalized to the control, and plotted as percent change in proliferation. Percent proliferation of hsa-miR-34a treated cells relative to cells treated with negative control miRNA (100%) is shown in Table 9 and in FIG. 5.

PPC-1 cells = experiment: as above; details: 30 nM, normalized to negative control miRNA (100% proliferation)
Text: as §1

Du145 cells = experiment: as above; details: 30 nM, normalized to negative control miRNA (100% proliferation)
Text: as §1

RWPE2 cells = experiment: as above; details: 30 nM, normalized to negative control miRNA (100% proliferation)
Text: as §1

H460 lung cancer cells = experiment: Alamar Blue proliferation assay with pair-wise miRNA combinations
Text: miRNAs function in multiple pathways controlling multiple cellular processes. Cancer cells frequently show aberrations in several different pathways, which determine their oncogenic properties. […] The inventors assessed the efficacy of pair-wise miRNA combinations, administering hsa-miR-34a concurrently with either hsa-miR-124a, hsa-miR-126, hsa-miR-147, hsa-let-7b, hsa-let-7c or hsa-let-7g (Pre-miR™ miRNA, Ambion cat. no. AM17100). H460 lung cancer cells were transiently reverse-transfected in triplicate with each miRNA at a final concentration of 300 pM, resulting in 600 pM of total oligonucleotide. For negative controls, 600 pM of Pre-miR™ microRNA Precursor Molecule-Negative Control #2 (Ambion cat. no. AM17111) were used. To correlate the effect of various combinations with the effect of the sole miRNA, each miRNA at 300 pM was also combined with 300 pM negative control miRNA. Reverse transfection was carried out using the following parameters: 7,000 cells per 96 well, 0.15 μl Lipofectamine™ 2000 (Invitrogen) in 20 μl OptiMEM (Invitrogen), 100 μl total transfection volume. […] Cells were harvested 72 hours after transfection and subjected to Alamar Blue assays (Invitrogen). Percent proliferation values from the Alamar Blue assays were normalized to those obtained from cells treated with 600 pM negative control miRNA. Data are expressed as % proliferation relative to negative control miRNA-treated cells (Table 8, FIG. 3).
Additive activity of pair-wise combinations (e.g., hsa-miR-34a plus hsa-miR-147) is defined as an activity that is greater than the sole activity of each miRNA (e.g., the activity of hsa-miR-34a plus hsa-miR-147 is greater than that observed for hsa-miR-34a plus NC and the activity of hsa-miR-34a plus hsa-miR-147 is greater than that observed for hsa-miR-147 plus NC). Synergistic activity of pair-wise combinations is defined as an activity that is greater than the sum of the sole activity of each miRNA (e.g., the activity of hsa-miR-34a plus hsa-let-7g is greater than that observed for the sum of the activity of hsa-miR-34a plus NC and the activity of hsa-let-7g plus NC). […] The combinatorial use of miRNAs represents a potentially useful therapy for cancer and other diseases.

In the case of “hsa-miR-34a: synthetic miRNA; mature sequence UGGCAGUGUCUUAGCUGGUUGUU (MIMAT0000255; SEQ ID NO:1) (synthetic miRNA, chemistry not given here)”, the “% proliferation” value (LNCaP cells) is reported as 49.40%, the “% proliferation” value (PPC-1 cells) is reported as 24.65% and the “% proliferation” value (Du145 cells) is reported as 81.26%. For the same substance, the “% proliferation” value (RWPE2 cells) was 95.96%, the reduction of proliferation (H460 lung cancer cells; 300 pM hsa-miR-34a plus 300 pM negative control miRNA) was 0.42% and the “% proliferation” value (H460 lung cancer cells; each miRNA 300 pM (600 pM total), 72 h, normalized to 600 pM negative control miRNA) was 99.58%.
